# Where a SMILES comes first, the peptide text is derived from it.
# Assay: Heating experiments: succinimide formation (dehydration) from Asp isomer peptides
# Format: physicochemical
# Details: chemical stability, PBS pH 7.4, 70°C, RP-HPLC peak areas, 215 nm
# Experimental: To determine the rate constant for the conversion the Asp isomers to succinimides in the T6 peptide, the T6-Lα, T6-Lβ, T6-Dα and T6-Dβ peptides were dissolved in PBS (pH7.4) and were incubated at 50, 60, 70, 80, and 90°C for 0.4–31 days.
# After the incubation of the 4 isomeric peptides, these peptides were subjected to HPLC. Since the four isomeric T6 peptides are clearly separated by RP-HPLC chromatography, we can measure the relative amounts of the peptides produced by the incubation from the peak areas of the 4 isomeric peptides in the chromatogram. The results are as follows: [drawing 11] (4 - 1) [drawing 12] (4 - 2) [drawing 13] (4 - 3) [drawing 14] (4 - 4) where [L-α-Asp]%, [L-β-Asp]%, [D-α-Asp]%, and [D-β-Asp]% are relative amounts (%) of L-α-Asp, L-β-Asp, D-α-Asp and D-β-Asp, and [L-α-Asp], [L-β-Asp], [D-α-Asp] and [D-β-Asp] represent the concentration of L-α-Asp, L-β-Asp, D-α-Asp and D-β-Asp respectively, which are calculated from the peak area in the RP-HPLC chromatogram. We plotted the relative amounts against incubation time. Subsequently, we drew fitted curves for this plot as follows:f1(t) for L-α-Asp, f2(t) for L-β-Asp, f3(t) for D-α-Asp, f4(t) for D-β-Asp.
# The rate constants of the conversion of the peptide isomers can be expressed as follows: [drawing 15] (5 - 1) [drawing 16] (5 - 2) [drawing 17] (5 - 3) [drawing 18] (5 - 4) where [L-succinimide]% and [D-succinimide]% represent the relative amounts of L-succinimide and D-succinimide as a percentage, t is time (day), k1 is the rate constant for the conversion of L-α-Asp to L-succinimide (day^−1), k2 is the rate constant for the conversionof L-succinimide to L-α-Asp (day^−1), k3 is the rate constant for the conversion of L-β-Asp to L-succinimide (day^−1), k4 is the rate constant for the conversion of L-succinimide to L-β-Asp (day^−1), k5 is the rate constant for the conversion of D-α-Asp to D-succinimide (day^−1), k6 is the rate constant for the conversion of D-succinimide to D-α-Asp (day^−1), k7 is the rate constant for the conversion of D-β-Asp to D-succinimide (day^−1), k8 is the rate constant for the conversion of D-succinimide to D-β-Asp (day^−1), and f1’(t), f2’(t), f3’(t) and f4’(t) are derivatives of f1(t), f2(t), f3(t) and f4(t). At t = 0 day, [L-α-Asp]% and [L-succinimide]% are 100% and 0% respectively, therefore, Eq. (5-1) can be expressed as: […]
# We determined k1, k3, k5 and k7 at five temperatures (50, 60, 70, 80 and 90°C) by using Eq. (6-1), (6-2), (6-3), (6-4). The Arrhenius equation shown below gives the activation energy of the degradation reaction. [drawing 23] […] From Eq. (7), we calculated k1, k3, k5 and k7 at 37°C using k1, k3, k5 and k7 from five temperatures (50, 60, 70, 80 and 90°C).
row,amount of peptide remaining after 10 days of incubation at 70°C,Structure (SMILES)
1,40%,CC[C@H](C)[C@H](NC(=O)CNC(=O)[C@H](CO)NC(=O)[C@@H](CC(=O)O)NC(=O)[C@H](CC(C)C)NC(=O)[C@@H](NC(=O)[C@@H](N)[C@@H](C)O)C(C)C)C(=O)N[C@@H](CO)C(=O)N[C@@H](CCC(=O)O)C(=O)N[C@H](C(=O)N[C@@H](CCCNC(=N)N)C(=O)O)C(C)C [T6-Dα] (HELM PEPTIDE1{T.V.L.[dD].S.G.I.S.E.V.R}$$$$V2.0)
2,more than 80%,CC[C@H](C)[C@H](NC(=O)CNC(=O)[C@H](CO)NC(=O)C[C@@H](NC(=O)[C@H](CC(C)C)NC(=O)[C@@H](NC(=O)[C@@H](N)[C@@H](C)O)C(C)C)C(=O)O)C(=O)N[C@@H](CO)C(=O)N[C@@H](CCC(=O)O)C(=O)N[C@H](C(=O)N[C@@H](CCCNC(=N)N)C(=O)O)C(C)C [T6-Dβ] (HELM PEPTIDE1{T.V.L.[O=C(O)[C@@H](CC(=O)[*:2])N[*:1]].S.G.I.S.E.V.R}$$$$V2.0)
3,30%,CC[C@H](C)[C@H](NC(=O)CNC(=O)[C@H](CO)NC(=O)[C@H](CC(=O)O)NC(=O)[C@H](CC(C)C)NC(=O)[C@@H](NC(=O)[C@@H](N)[C@@H](C)O)C(C)C)C(=O)N[C@@H](CO)C(=O)N[C@@H](CCC(=O)O)C(=O)N[C@H](C(=O)N[C@@H](CCCNC(=N)N)C(=O)O)C(C)C [T6-Lα] (H-TVLDSGISEVR-OH)
4,more than 80%,CC[C@H](C)[C@H](NC(=O)CNC(=O)[C@H](CO)NC(=O)C[C@H](NC(=O)[C@H](CC(C)C)NC(=O)[C@@H](NC(=O)[C@@H](N)[C@@H](C)O)C(C)C)C(=O)O)C(=O)N[C@@H](CO)C(=O)N[C@@H](CCC(=O)O)C(=O)N[C@H](C(=O)N[C@@H](CCCNC(=N)N)C(=O)O)C(C)C [T6-Lβ] (HELM PEPTIDE1{T.V.L.[O=C(O)[C@H](CC(=O)[*:2])N[*:1]].S.G.I.S.E.V.R}$$$$V2.0)
